Laboratory results reported in ChEMBL document CHEMBL4725430, “Discovery of Zika Virus NS2B/NS3 Inhibitors That Prevent Mice from Life-Threatening Infection and Brain Damage” (ACS Med Chem Lett, 2020).
Calls of active or inactive are those of the source. No cut-off for these calls is given here.

Experiments:
Zika virus [1] = experiment: Antiviral activity against Zika virus 976 Uganda infected in human HepG2 cells assessed as protection against viral infection by measuring cell survival at 10 uM measured after 4 days by CellTiter-Glo luminescent cell viability assay relative to control; type: functional; conditions: HepG2, 96 h, time 4 day
[2] = Cytotoxicity against human HepG2 cells assessed as cell viability at 10 uM measured after 4 days by CellTiter-Glo luminescent cell viability assay relative to control; type: cell-based; conditions: time 4 day, read-out: Activity
[3] = Inhibition of N-terminal thrombin cleavage fused His-tagged Zika virus ARD41644 NS2B Arg95Ala mutant (49 to 95 residues)/NS3 Arg29Gly mutant (1 to 170 residues) protease expressed in Escherichia coli BL21pLysS using Bz-nKRR-MCA peptide as substrate by FRET assay
Zika virus [4] = experiment: Antiviral activity against Zika virus MR766 infected in human Huh-7 cells assessed as reduction in viral infection; type: functional, organism-based; conditions: MR766, Huh-7
[5] = Inhibition of DENV2 NS2B-NS3 protease using Bz-nKRR-MCA as substrate by FRET assay; set-up: species or system dengue virus type 2
[6] = Non- competitive inhibition of N-terminal thrombin cleavage fused His-tagged Zika virus ARD41644 NS2B Arg95Ala mutant (49 to 95 residues)/NS3 Arg29Gly mutant (1 to 170 residues) protease expressed in Escherichia coli BL21pLysS using varying levels Bz-nKRR-MCA as substrate by Lineweaver-Burk double reciprocal plot analysis
[7] = Binding affinity to N-terminal thrombin cleavage fused His-tagged Zika virus ARD41644 NS2B Arg95Ala mutant (49 to 95 residues)/NS3 Arg29Gly mutant (1 to 170 residues) protease expressed in Escherichia coli BL21pLysS by MST method
Zika virus [8] = experiment: Antiviral activity against Zika virus MR766 infected in human Huh-7 cells assessed as reduction in viral NS2B protein synthesis incubated for 3 days by Western blot analysis; type: functional, organism-based; conditions: dose microM 1-20, time 3.0 day
Zika virus [9] = experiment: Antiviral activity against Zika virus MR766 infected in human Huh-7 cells assessed as reduction in viral RNA synthesis incubated for 3 days by qRT-PCR analysis; type: functional, organism-based
Huh-7 = experiment: Cytotoxicity against human Huh-7 cells; type: cell-based
Zika virus [10] = experiment: Antiviral activity against Zika virus infected in 6 days old suckling ICR mouse assessed as improvement in body weight at 1 mg/kg, ip administered at day 1, 3 and 5 post-infection and monitored daily for 6 days post-infection; type: functional, organism-based
Zika virus [11] = experiment: Antiviral activity against Zika virus infected in 6 days old suckling ICR mouse assessed as improvement in survival rate at 1 mg/kg, ip administered at day 1, 3 and 5 post-infection and monitored daily for 6 days post-infection; type: functional, organism-based
Zika virus [12] = experiment: Antiviral activity against Zika virus infected in 6 days old suckling ICR mouse assessed as inhibition of viral replication in brain at 1 mg/kg, ip administered at day 1, 3 and 5 post-infection by immunohistochemical staining; type: functional, organism-based
Zika virus [13] = experiment: Antiviral activity against Zika virus infected in 6 days old suckling ICR mouse assessed as reduction in virus titer in brain at 1 mg/kg, ip administered at day 1, 3 and 5 post-infection; type: functional, organism-based
Zika virus [14] = experiment: Antiviral activity against Zika virus infected in 6 days old suckling ICR mouse assessed as reduction in brain damage at 1 mg/kg, ip administered at day 1, 3 and 5 post-infection by hematoxylin and eosin staining based analysis; type: functional, organism-based
Zika virus [15] = experiment: Antiviral activity against Zika virus infected in 6 days old suckling ICR mouse assessed as reduction in monocyte infiltration in brain at 1 mg/kg, ip administered at day 1, 3 and 5 post-infection by immunohistochemistry analysis; type: functional, organism-based
Zika virus [16] = experiment: Antiviral activity against Zika virus 976 Uganda infected in human HepG2 cells assessed as inhibition of viral infection measured after 4 days by CellTiter-Glo luminescent cell viability assay; type: functional, organism-based; conditions: HepG2, 96 h
Zika virus [17] = experiment: Antiviral activity against Zika virus infected in 6 days old suckling ICR mouse assessed as improvement in clinical scores at 1 mg/kg, ip administered at day 1, 3 and 5 post-infection and monitored daily for 6 days post-infection; type: functional, organism-based
[18] = Cytotoxicity against human HepG2 cells assessed as cell viability at 100 uM measured after 4 days by CellTiter-Glo luminescent cell viability assay relative to control; type: cell-based; conditions: time 4 day, read-out: Activity

| SMILES | survival at 10 µM (Zika virus [1]) | viability at 96 h, 10 µM [2] | also measured |
| --- | --- | --- | --- |
| COC(=O)c1[nH]c2ccc(Cl)cc2c1C(=O)c1cc(OC)c(O)c(OC)c1 | 47% | 100% | IC50 [3]: 158 µM; EC50 (Zika virus [4]): 13.9 µM; IC50 [5]: 112 µM; Ki [6]: 280 µM; Kd [7]: > 1000 µM; Activity (Zika virus [8]): Dose-dependent effect; IC50 (Zika virus [9]; MR766, Huh-7, 72 h): 13.9 µM; inhibition (Zika virus [9]; time 3.0 day): Dose-dependent effect; Activity (Huh-7): Non-Toxic; Activity (Zika virus [10]): Active; Activity (Zika virus [11]): Active; Activity (Zika virus [12]): Active; Activity (Zika virus [13]): Active; Activity (Zika virus [14]): Active; Activity (Zika virus [15]): Active; IC50 (Zika virus [16]): 13.7 µM; Activity (Zika virus [17]): Active |
| COC(=O)c1[nH]c2ccc(Cl)cc2c1Cc1cc(OC)c(O)c(OC)c1 | 23% | 100% |  |
| COC(=O)c1[nH]c2ccc(OC)cc2c1C(=O)c1cc(OC)c(O)c(OC)c1 | 49% | 100% |  |
| CCOC(=O)c1[nH]c2ccc(OC)cc2c1Cc1cc(OC)c(O)c(OC)c1 | 28% | 100% |  |
| NC(=O)c1ncn([C@@H]2O[C@H](CO)[C@@H](O)[C@H]2O)n1 [RIBAVIRIN] |  |  | viability at 96 h, 100 µM [18]: 100% |
| COC(=O)c1[nH]c2ccc(Cl)cc2c1Cc1cc(OC)cc(OC)c1 | 16% | 100% | IC50 [3]: 770 µM |
| CCOC(=O)c1[nH]c2ccccc2c1C(=O)c1cc(OC)c(O)c(OC)c1 | 0% | 100% |  |
| CCOC(=O)c1[nH]c2ccccc2c1Cc1cc(OC)c(O)c(OC)c1 | 0% | 100% |  |
| COc1cc(C(=O)c2c(-c3ccccc3)[nH]c3ccc(Br)cc23)cc(OC)c1O | 23% | 100% |  |
| CCOC(=O)c1[nH]c2ccc(Br)cc2c1C(=O)c1cc(OC)c(O)c(OC)c1 | 66% | 100% | IC50 [3]: 33 µM; EC50 (Zika virus [4]): 16.2 µM; Ki [6]: 48 µM; Kd [7]: 300 µM; IC50 (Zika virus [16]): 15.8 µM |
| COC(=O)c1[nH]c2ccc(Br)cc2c1C(=O)c1cc(OC)c(O)c(OC)c1 | 22% | 100% |  |
| CCOC(=O)c1[nH]c2ccc(Br)cc2c1Cc1cc(OC)c(O)c(OC)c1 | 20% | 100% |  |
| COC(=O)c1[nH]c2ccc(Br)cc2c1Cc1cc(OC)c(O)c(OC)c1 | 2% | 100% |  |
| CCOC(=O)c1[nH]c2ccc(O)cc2c1C(=O)c1cc(OC)c(O)c(OC)c1 | 0% | 94% |  |
| CCOC(=O)c1[nH]c2ccc(OC)cc2c1C(=O)c1cc(OC)c(O)c(OC)c1 | 47% | 100% |  |
